Assay results published in the supplement of paper PMC11208160.

experiment: recombinant barcode read abundance after kanamycin selection (control-corrected) (log10(CPM+1)); higher = more efficient recombination; sequences stand for … in AGTGCAGAGAAAATCGGCCAGTTTTCTCTGCCTGCAGTCCGCATGCCGT…AGATTTATGCAGCGGACTGCCTTTCTCCCAAAGTGATAAACCGGACAGTATCATGGACCGGTTTTCCCGGTAATCCGTATTTGCAAGGTTGGTTTCACT; site = the 11-nt target
Outline: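 Recombination efficiency was calculated from barcode counts at recombinant junctions, normalized to counts per million, averaged and corrected by the control. Each value is given as log10(CPM+1). The constructs were Gibson-cloned oligos (promoter, target, barcode, J23119-driven first 104 bridge RNA bases) in a vector with the remaining 73 bp and a T7-inducible recombinase, co-electroporated into E. coli with a donor plasmid and plated in duplicate on chloramphenicol/ampicillin LB agar (control) or chloramphenicol/ampicillin/kanamycin with 0.1 mM IPTG.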
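Note: IS621 recombinase and bridge RNA in Escherichia coli cells.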

First: GTCAACTCTTGGGTTCTAACCTGTTGCCT (site GTCAACTCTAG)
Second: GTCAACTCTTGGGTTCTAACCTGTTGCCT (site GTGAACTCTAG)
The “recombinant barcode read abundance (log10)” value of the first is higher: 2.06 for the first, 0.00674 for the second.

“GTCAACTCTTGGGTTCTAACCTGTTGCCT (site GTTAACTCTAG)” and “GTCAATCCTTGGGTTCTAACCTGTTGCGG (site CGACGAACTAG)” are within 0.2 log units of each other in “recombinant barcode read abundance (log10)” value: 0.13 for the first, 0.138 for the second.

Compared with “GTCAATCCTTGGGTTCTAACCTGTTGCGG (site GTCAATCCTCC)”, “GTCAATCCTTGGGTTCTAACCTGTTGCGT (site GCCACTCCTAC)” is lower in “recombinant barcode read abundance (log10)” value: 1.25 for the first, 0.0762 for the second.

“GTCAATCCTTGGGTTCTAACCTGTTGCGT (site GTCAATCCTAC)” and “GTCACCTCTTGGGTTCTAACCTGTTGCCT (site GTCACCTCTAG)” are within 0.2 log units of each other in “recombinant barcode read abundance (log10)” value: 1.98 for the first, 1.8 for the second.

“GTCACCTCTTGGGTTCTAACCTGTTGCCT (site GTCCCCTCTAG)” and “GTCACCTCTTGGGTTCTAACCTGTTGCCT (site GTCGCCTCTAG)” are within 0.2 log units of each other in “recombinant barcode read abundance (log10)” value: 0.0973 for the first, 0.0645 for the second.

“GTCACCTCTTGGGTTCTAACCTGTTGCCT (site GTCTCCTCTAG)” and “GTCACTACTTGGGTTCTAACCTGTTGCGT (site GTAACTACTCC)” are within 0.2 log units of each other in “recombinant barcode read abundance (log10)” value: 0.105 for the first, 0.182 for the second.

First: GTCACTACTTGGGTTCTAACCTGTTGCGT (site GTCACTACTAC)
Second: GTCAGCCCTTGGGTTCTAACCTGTTGCGG (site GTCAGCCCTCC)
The “recombinant barcode read abundance (log10)” value of the first is lower: 0.517 for the first, 2.53 for the second.

First: GTCAGCCCTTGGGTTCTAACCTGTTGCGG (site GTTAGCCCTCC)
Second: GTCCCTCCTTGGGTTCTAACCTGTTGCGT (site GTCCCTCCTAA)
The “recombinant barcode read abundance (log10)” value of the first is higher: 0.365 for the first, 0.0918 for the second.

Going from “GTCCCTCCTTGGGTTCTAACCTGTTGCGT (site GTCCCTCCTAC)” to “GTCCCTCCTTGGGTTCTAACCTGTTGCGT (site GTCCCTCCTAG)”, the “recombinant barcode read abundance (log10)” value falls from 2.74 to 0.156.

First: GTCCCTCCTTGGGTTCTAACCTGTTGCGT (site GTCCCTCCTAT)
Second: GTCCTACCTTGGGTTCTAACCTGTTGCAA (site GTCCTAACTGT)
The “recombinant barcode read abundance (log10)” value of the first is higher: 1.34 for the first, 0.42 for the second.

First: GTCCTACCTTGGGTTCTAACCTGTTGCAA (site GTCCTACCTTT)
Second: GTCGAGCCTTGGGTTCTAACCTGTTGCCT (site GTCGAGCCTAG)
The “recombinant barcode read abundance (log10)” value of the first is lower: 1.45 for the first, 2.12 for the second.

“GTCGAGCCTTGGGTTCTAACCTGTTGCCT (site GTTCAGCCTAG)” and “GTCGAGTCTTGGGTTCTAACCTGTTGCCT (site GTCGACACTAG)” are within 0.2 log units of each other in “recombinant barcode read abundance (log10)” value: 0.157 for the first, 0.186 for the second.

Going from “GTCGAGTCTTGGGTTCTAACCTGTTGCCT (site GTCGAGTCTAG)” to “GTCGCTACTTGGGTTCTAACCTGTTGCCG (site GTCACTACTCG)”, the “recombinant barcode read abundance (log10)” value falls from 1.61 to 0.

First: GTCGCTACTTGGGTTCTAACCTGTTGCCG (site GTCCCTACTCG)
Second: GTCGCTACTTGGGTTCTAACCTGTTGCCG (site GTCGCTACTCG)
The “recombinant barcode read abundance (log10)” value of the first is lower: 0.0655 for the first, 0.95 for the second.

Compared with “GTCGCTACTTGGGTTCTAACCTGTTGCCG (site GTCTCTACTCG)”, “GTCGCTACTTGGGTTCTAACCTGTTGCGG (site GTCGCTACTCC)” is lower in “recombinant barcode read abundance (log10)” value: 1.35 for the first, 0.785 for the second.

Going from “GTCGCTACTTGGGTTCTAACCTGTTGCGG (site GTCTCTACTCC)” to “GTCGGTCCTTGGGTTCTAACCTGTTGCAC (site GTCGGTCCTGT)”, the “recombinant barcode read abundance (log10)” value rises from 0.667 to 2.49.

Compared with “GTCGGTCCTTGGGTTCTAACCTGTTGCAC (site TGAAACTCTCC)”, “GTCGTACCTTGGGTTCTAACCTGTTGCCT (site GTCATACCTAG)” is higher in “recombinant barcode read abundance (log10)” value: 0.0122 for the first, 0.348 for the second.

Going from “GTCGTACCTTGGGTTCTAACCTGTTGCCT (site GTCCTACCTAG)” to “GTCGTACCTTGGGTTCTAACCTGTTGCCT (site GTCGTACCTAG)”, the “recombinant barcode read abundance (log10)” value rises from 0.0361 to 0.704.

“GTCGTACCTTGGGTTCTAACCTGTTGCCT (site GTCTTACCTAG)” and “GTCGTAGCTTGGGTTCTAACCTGTTGCTA (site GTCGAACCTTA)” are within 0.2 log units of each other in “recombinant barcode read abundance (log10)” value: 0.221 for the first, 0.139 for the second.

First: GTCGTAGCTTGGGTTCTAACCTGTTGCTA (site GTCGTAGCTTA)
Second: GTCGTCGCTTGGGTTCTAACCTGTTGCCT (site GTCGTCACTAG)
The “recombinant barcode read abundance (log10)” value of the first is higher: 0.353 for the first, 0.136 for the second.

Going from “GTCGTCGCTTGGGTTCTAACCTGTTGCCT (site GTCGTCCCTAG)” to “GTCGTCGCTTGGGTTCTAACCTGTTGCCT (site GTCGTCGCTAG)”, the “recombinant barcode read abundance (log10)” value rises from 0.0726 to 0.376.

Going from “GTCGTCGCTTGGGTTCTAACCTGTTGCCT (site GTCGTCTCTAG)” to “GTCTAAGCTTGGGTTCTAACCTGTTGCCG (site GTCTAAGCTCG)”, the “recombinant barcode read abundance (log10)” value rises from 0.0427 to 0.59.

“GTCTAAGCTTGGGTTCTAACCTGTTGCCG (site GTCTACGCTTG)” and “GTCTAAGCTTGGGTTCTAACCTGTTGCTT (site GTCTAAGCTAA)” are within 0.2 log units of each other in “recombinant barcode read abundance (log10)” value: 0.0178 for the first, 0.0172 for the second.

First: GTCTAAGCTTGGGTTCTAACCTGTTGCTT (site GTCTATGCTAC)
Second: GTCTAATCTTGGGTTCTAACCTGTTGCAT (site ACAGGTCCTCG)
The “recombinant barcode read abundance (log10)” value of the first is higher: 0.295 for the first, 0.0725 for the second.

First: GTCTAATCTTGGGTTCTAACCTGTTGCAT (site GTCTAATCTAT)
Second: GTCTCGTCTTGGGTTCTAACCTGTTGCTT (site GTCTCGTCTAA)
The “recombinant barcode read abundance (log10)” value of the first is higher: 1.02 for the first, 0.246 for the second.

“GTCTCGTCTTGGGTTCTAACCTGTTGCTT (site GTCTCTTCTTA)” and “GTCTGAGCTTGGGTTCTAACCTGTTGCCT (site GTCTAAGCTAG)” are within 0.2 log units of each other in “recombinant barcode read abundance (log10)” value: 0.0559 for the first, 0.241 for the second.

Going from “GTCTGAGCTTGGGTTCTAACCTGTTGCCT (site GTCTGAGCTAG)” to “GTCTTATCTTGGGTTCTAACCTGTTGCCT (site GTCTAATCTAG)”, the “recombinant barcode read abundance (log10)” value falls from 0.355 to 0.0535.

Going from “GTCTTATCTTGGGTTCTAACCTGTTGCCT (site GTCTCATCTAG)” to “GTCTTATCTTGGGTTCTAACCTGTTGCCT (site GTCTGATCTAG)”, the “recombinant barcode read abundance (log10)” value rises from 0.0374 to 0.24.

First: GTCTTATCTTGGGTTCTAACCTGTTGCCT (site GTCTTATCTAG)
Second: GTCTTGACTTGGGTTCTAACCTGTTGCCA (site GTCTTAACTCG)
The “recombinant barcode read abundance (log10)” value of the first is higher: 1.14 for the first, 0.0812 for the second.

First: GTCTTGACTTGGGTTCTAACCTGTTGCCA (site GTCTTGACTTG)
Second: GTGAAAGCTTGGGTTCTAACCTGTTGCCA (site GTGAAAGCTTG)
The “recombinant barcode read abundance (log10)” value of the first is lower: 0.102 for the first, 0.73 for the second.

Going from “GTGAAAGCTTGGGTTCTAACCTGTTGCCA (site GTGGAAGCTTG)” to “GTGAACCCTTGGGTTCTAACCTGTTGCAA (site GTGAACCCTTT)”, the “recombinant barcode read abundance (log10)” value rises from 0.0113 to 1.66.

Going from “GTGAACCCTTGGGTTCTAACCTGTTGCAA (site TCCGGAGCTCG)” to “GTGAACCCTTGGGTTCTAACCTGTTGCAG (site GTGAACCCTCT)”, the “recombinant barcode read abundance (log10)” value rises from 0.103 to 2.11.

“GTGAACCCTTGGGTTCTAACCTGTTGCAG (site GTGATCCCTCT)” and “GTGAAGACTTGGGTTCTAACCTGTTGCTT (site AACGTACCTCT)” are within 0.2 log units of each other in “recombinant barcode read abundance (log10)” value: 0.0104 for the first, 0.125 for the second.
